Literature values in patent US6479045B2, “Vaginal pH buffering for preventing miscarriage and premature labor, by treating or preventing bacterial vaginosis” (Columbia Laboratories, Inc., priority 1999, dated 2002).

Tested on: Bacterial Vaginosis
Settings: within one month

## Cc1ncc([N+](=O)[O-])n1CCO [metronidazole]
  cure rate: approximately 70%
